Where two headings read alike, the source gives them in different places.
Tests used:
[1] = ambient temperature; cited from earlier work
[2] = Particle size of ezetimibe by Malvern Mastersizer; assay type: physicochemical; conditions: ezetimibe particles, lactose in the blend dissolved
Text: After mixing of blend 2 in a high shear mixer, a good particle distribution could be reached. The size of the ezetimibe particles was not essentially changed.

[3] = cited from earlier work; for solubility in ethanol, methanol, and acetone: organic solvents

Particle size d(0.1) [2]: 0.43 μm | Particle size d(0.5) [2]: 7.54 μm | Particle size d(0.9) [2]: 16.87 μm
SMILES: O=C1[C@H](CC[C@H](O)c2ccc(F)cc2)[C@@H](c2ccc(O)cc2)N1c1ccc(F)cc1 [Ezetimibe, ezetimibe]
stability [1]: stable | solubility in ethanol, methanol, and acetone [3]: freely to very soluble | solubility in ethanol, methanol, and acetone ([3]; listed as ezetimibe): soluble | solubility in water [3]: practically insoluble | solubility in water ([3]; listed as ezetimibe): poorly soluble
